Assay results taken from patent US9687484B2, “Crystalline forms of an antidepressant compound” (DIPHARMA FRANCIS S.r.l., priority 2014, dated 2017).
Where a name gives a salt, the structure may show the parent alone. Values belong to the molecule of their own block, whether it stands above or below them.

Columns and labels:
[1] = greater relative humidity than the standard conditions; as described in WO 2007/144005, acknowledged by WO2014/044721; cited from earlier work
[2] = XRPD comparison of crystalline form ω fresh and after storage; assay type: physicochemical; settings: in the presence of moisture; FIGS. 6 and 7: 4° C. 24 hours, room temperature 24 hours, 25° C. and 60% RH 7 days
Description: FIG. 6: Comparison of XRPD spectra of a sample of vortioxetine hydrobromide in crystalline form ω, as defined herein, freshly prepared (top line), after the same sample of vortioxetine hydrobromide in crystalline form ω has been kept at low temperature (4° C.) for 24 hours (middle line), and after the sample has been kept at room temperature for 24 hours (bottom line).
FIG. 7: Comparison of XRPD spectra of a sample of vortioxetine hydrobromide in crystalline form ω, as defined herein, freshly prepared (bottom line), and the same sample analysed after 7 days, kept at a temperature of 25° C. and 60% relative humidity (RH) (top line).
Crystalline form ω of vortioxetine hydrobromide was characterised by X-ray powder diffraction (XRPD). The X-ray powder diffraction (XRPD) spectra shown in FIGS. 3, 6 and 7 were collected with a PANalytical X'Pert PRO automatic powder diffractometer under the following operating conditions: CuKα radiation (λ=1.54 Å), scanning with a 2θ angle range of 3-40° with a step size of 0.017° for 12.7 sec.

[3] = Hygroscopicity of crystalline form ω under standard storage conditions; assay type: physicochemical
[4] = Physical and chemical stability of crystalline form ω under standard conditions; assay type: physicochemical; settings: standard pressure, temperature and humidity conditions; FIGS. 6 and 7
[5] = as said in WO 2014/044721; cited from earlier work

Compound: Cc1ccc(Sc2ccccc2N2CCNCC2)c(C)c1 [gamma, vortioxetine hydrobromide]
- hygroscopicity (tendency to absorb water) [1]: significant hygroscopicity

- retention of crystalline form (XRPD) [2]: keeps its crystalline form
- hygroscopicity [3]: not hygroscopic
Compound: Cc1ccc(Sc2ccccc2N2CCNCC2)c(C)c1 [crystalline form ω, hydrobromide salt of 1-[2-(2,4-dimethylphenylsulphanyl)phenyl]piperazine]
- physical and chemical stability [4]: stable from both the physical and the chemical standpoint

Compound: Cc1ccc(Sc2ccccc2N2CCNCC2)c(C)c1 [delta crystalline form, vortioxetine hydrobromide]
- solubility in water [5]: high solubility in water
